Measurements reported in patent US10119097B2, “Organic compounds” (GIVAUDAN SA, priority 2014, dated 2018).

Columns and labels:
rat hepatocytes = test: in vitro metabolism in rat hepatocytes in suspension, benzoic acid derivative formation by GC-MS; assay type: in vitro ADME; conditions: incubated with hepatocytes isolated from rats; substantially no = below the limit of detection, i.e. <1%
Description: Decrease of Lilial™ and the compound released by the precursor of the present invention, and formation of the corresponding benzoic acid derivative may be analysed by GC-MS.
By “substantially no benzoic acid derivative” is meant that the concentration of said derivative is below the limit of detection, i.e. <1%. As such, the fragrance precursor releasing 3-(4-isobutyl-2-methylphenyl)propanal provides perfumers with an eminently suitable surrogate for the valuable yet problematic Lilial™.

mice = conditions: mouse, in vivo; cited from earlier work
guinea-pigs = conditions: guinea pig, in vivo; cited from earlier work
primates = conditions: cited from earlier work

SMILES	formation of the corresponding benzoic acid derivative (rat hepatocytes)	toxic effects (mice)	toxic effects (guinea-pigs)	toxic effects (primates)
Cc1cc(CC(C)C)ccc1CCC=O [3-(4-isobutyl-2-methylphenyl)propanal]	forms no, or substantially no, corresponding benzoic acid derivative			
CC(C=O)Cc1ccc(C(C)(C)C)cc1 (stereo not shown) [Lilial™, 3-(4-tert-butylphenyl)-2-methylpropanal]		No effects were found	No effects were found	No effects were found
